Assay results published in the CheMixHub ionic liquid set.

Assay: xn = mol fraction of the nth substance listed
Settings: 101.3 kPa

CC[n+]1ccn(C)c1.O=S(=O)([N-]S(=O)(=O)C(F)(F)F)C(F)(F)F + COC(=O)OC
viscosity [mPa·s]
Settings | 288.15 K | 293.15 K | 298.15 K
x1 = 0.00265 | 0.69 | 0.644 | 0.604
x1 = 0.005572 | 0.717 | 0.67 | 0.627
x1 = 0.006266 | 0.73 | 0.681 | 0.637
x1 = 0.006515 | 0.73 | 0.682 | 0.637
x1 = 0.008405 | 0.748 | 0.698 | 0.653
x1 = 0.01068 | 0.778 | 0.724 | 0.676
x1 = 0.01231 | 0.795 | 0.74 | 0.691
x1 = 0.01323 | 0.813 | 0.757 | 0.707
x1 = 0.01407 | 0.821 | 0.763 | 0.713
x1 = 0.01462 | 0.823 | 0.766 | 0.716
x1 = 0.01829 | 0.861 | 0.801 | 0.747
x1 = 0.01968 | 0.873 | 0.812 | 0.757
x1 = 0.02012 | 0.879 | 0.817 | 0.762
x1 = 0.02014 | 0.878 | 0.816 | 0.76
x1 = 0.02562 | 0.928 | 0.861 | 0.804
x1 = 0.03021 | 0.956 | 0.886 | 0.824
x1 = 0.03102 | 0.964 | 0.893 | 0.83
x1 = 0.03106 | 0.961 | 0.89 | 0.828
x1 = 0.03348 | 0.982 | 0.91 | 0.846
x1 = 0.03766 | 1.018 | 0.943 | 0.877
x1 = 0.04567 | 1.086 | 1.005 | 0.934
x1 = 0.04728 | 1.111 | 1.029 | 0.945
x1 = 0.05348 | 1.15 | 1.064 | 0.988
x1 = 0.05932 | 1.205 | 1.113 | 1.033
